Active and inactive are the calls of the source. How the calls were made is not given here.
Assays:
Experiment in all cases: competitive ABPP of Abhd10 versus anti-targets – biochemical, fluorescence, gel-based, mouse proteome, selectivity assay for PME-1 inhibitor project, late-stage follow-up (AID 588807)
APEH = conditions: anti-target, stronger effect = higher value
Kiaa1363 = conditions: anti-target, stronger effect = higher value
Magl = conditions: anti-target, stronger effect = higher value
[1] = molecular target: Monoacylglycerol lipase ABHD6 (Mus musculus) (UniProt Q8R2Y0); conditions: anti-target, stronger effect = higher value
[2] = molecular target: Palmitoyl-protein thioesterase ABHD10, mitochondrial (Mus musculus) (UniProt Q6PE15); conditions: stronger effect = higher value
[3] = molecular target: Prolyl endopeptidase (Mus musculus) (UniProt Q9QUR6); conditions: PREP, anti-target, stronger effect = higher value
Sequence of Prolyl endopeptidase (Mus musculus) (Q9QUR6 whole entry, looked up): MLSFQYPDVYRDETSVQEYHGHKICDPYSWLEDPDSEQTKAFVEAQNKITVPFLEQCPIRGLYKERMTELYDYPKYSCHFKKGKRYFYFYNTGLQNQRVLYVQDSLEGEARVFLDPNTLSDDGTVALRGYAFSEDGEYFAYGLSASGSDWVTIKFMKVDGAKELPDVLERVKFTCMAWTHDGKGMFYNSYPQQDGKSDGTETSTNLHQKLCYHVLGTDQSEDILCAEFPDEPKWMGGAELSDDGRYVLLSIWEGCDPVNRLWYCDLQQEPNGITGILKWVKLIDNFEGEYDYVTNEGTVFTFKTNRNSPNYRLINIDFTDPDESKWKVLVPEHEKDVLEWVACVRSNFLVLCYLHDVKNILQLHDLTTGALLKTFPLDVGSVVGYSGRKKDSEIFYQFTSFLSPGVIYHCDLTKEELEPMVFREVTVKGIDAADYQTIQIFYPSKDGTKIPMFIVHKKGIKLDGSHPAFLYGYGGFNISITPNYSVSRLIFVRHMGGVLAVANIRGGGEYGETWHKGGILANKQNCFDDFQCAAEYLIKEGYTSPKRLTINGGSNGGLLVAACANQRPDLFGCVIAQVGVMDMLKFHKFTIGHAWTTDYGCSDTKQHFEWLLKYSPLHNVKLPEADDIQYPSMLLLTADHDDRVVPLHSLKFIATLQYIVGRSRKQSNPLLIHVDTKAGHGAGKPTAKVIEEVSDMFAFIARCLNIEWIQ

Sequence of Palmitoyl-protein thioesterase ABHD10, mitochondrial (Mus musculus) (Q6PE15 whole entry, looked up): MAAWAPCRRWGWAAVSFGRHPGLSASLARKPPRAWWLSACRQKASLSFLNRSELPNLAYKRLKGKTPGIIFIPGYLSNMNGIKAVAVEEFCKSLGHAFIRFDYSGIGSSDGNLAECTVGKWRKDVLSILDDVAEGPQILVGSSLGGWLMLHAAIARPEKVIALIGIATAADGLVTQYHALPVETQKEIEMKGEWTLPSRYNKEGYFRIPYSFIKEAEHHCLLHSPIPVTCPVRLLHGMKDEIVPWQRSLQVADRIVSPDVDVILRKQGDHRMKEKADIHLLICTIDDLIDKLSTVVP
Sequence of Monoacylglycerol lipase ABHD6 (Mus musculus) (Q8R2Y0 whole entry, looked up): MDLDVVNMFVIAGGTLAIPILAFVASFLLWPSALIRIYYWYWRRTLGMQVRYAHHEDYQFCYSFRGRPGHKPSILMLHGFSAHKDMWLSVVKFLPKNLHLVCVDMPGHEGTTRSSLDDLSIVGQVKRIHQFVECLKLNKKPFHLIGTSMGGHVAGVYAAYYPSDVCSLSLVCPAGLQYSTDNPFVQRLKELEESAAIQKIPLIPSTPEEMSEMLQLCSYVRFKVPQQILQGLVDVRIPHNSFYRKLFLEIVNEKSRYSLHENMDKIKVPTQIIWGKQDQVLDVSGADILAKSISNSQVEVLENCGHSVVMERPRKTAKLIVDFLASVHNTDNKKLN

Row | Structure (SMILES) | inhibition (APEH; at 10 µM) | inhibition (Kiaa1363; at 10 µM) | inhibition (Magl; at 10 µM) | inhibition ([1]; at 10 µM) | inhibition ([2]; at 10 µM) | inhibition ([2]; inhibition, at 0.1 µM) [%] | inhibition ([2]; inhibition, at 1 µM) [%] | inhibition ([3]; at 10 µM) | inhibition ([3]; inhibition, at 1 µM) [%] | inhibition ([1]; inhibition, at 0.1 µM) [%] | inhibition ([1]; inhibition, at 1 µM) [%] | inhibition (Magl; inhibition, at 1 µM) [%] | inhibition (APEH; inhibition, at 1 µM) [%] | inhibition (Kiaa1363; inhibition, at 1 µM) [%] | inhibition (APEH; inhibition, at 0.1 µM) [%] | inhibition (Magl; inhibition, at 0.1 µM) [%] | inhibition ([3]; inhibition, at 0.1 µM) [%]
1 | C=CCOC(=O)N1C(=O)[C@@](CC)(c2cccc(C)c2)N1C(=O)OC | 55% (inactive) | 35% (inactive) | 20% (inactive) | 45% (inactive) | 100% (inactive) | 10 | 95 | 65% (inactive) | 20 | – | – | – | – | – | – | – | –
2 | Cc1cccc([C@]2(C)C(=O)N(C(=O)OCc3ccccc3)N2C(=O)OCc2ccccc2)c1 | 0% (inactive) | 0% (inactive) | 0% (inactive) | 0% (inactive) | 15% (inactive) | – | – | 0% (inactive) | – | – | – | – | – | – | – | – | –
3 | CCCOC(=O)N1C(=O)[C@@](CC)(c2ccc(C)cc2)N1C(=O)OCCC | 0% (inactive) | 25% (inactive) | 80% (inactive) | 85% (inactive) | 95% | 95 | 95 | 65% (inactive) | 25 | 10 | 25 | – | – | – | – | – | –
4 | C=CCOC(=O)N1C(=O)[C@@](CC)(c2cccc(C)c2)N1C(=O)OCC=C | 20% (inactive) | 20% (inactive) | 50% (inactive) | 75% (inactive) | 90% (inactive) | 35 | 85 | 65% (inactive) | 10 | – | – | – | – | – | – | – | –
5 | CCCOC(=O)N1C(=O)C(CC)(c2cccc(C)c2)N1C(=O)OCCC (stereo not drawn) | 10% (inactive) | 0% (inactive) | 25% (inactive) | 70% (inactive) | 100% (inactive) | 10 | 95 | 60% (inactive) | 20 | – | – | 10 | – | – | – | – | –
6 | C=CCOC(=O)N1N(C(=O)OC)C(=O)[C@@]1(CC)c1cccc(C)c1 | 75% (inactive) | 25% (inactive) | 10% (inactive) | 50% (inactive) | 90% (inactive) | 10 | 75 | 70% (inactive) | – | – | – | – | – | – | – | – | –
7 | C=CCOC(=O)N1C(=O)[C@@](CC)(c2ccccc2)N1C(=O)OC | 40% (inactive) | 10% (inactive) | 0% (inactive) | 35% (inactive) | 90% (inactive) | 10 | 70 | 25% (inactive) | – | – | 10 | – | – | – | – | – | –
8 | CC[C@@]1(c2ccccc2)C(=O)N(C(=O)OC)N1C(=O)OC | 0% (inactive) | 0% (inactive) | 0% (inactive) | 0% (inactive) | 10% (inactive) | – | – | 0% (inactive) | – | – | – | – | – | – | – | – | –
9 | CC[C@@]1(c2cccc(F)c2)C(=O)N(C(=O)OC)N1C(=O)OC | 0% (inactive) | 0% (inactive) | 25% (inactive) | 25% (inactive) | 95% | 60 | 95 | 70% (inactive) | 15 | – | – | – | – | – | – | – | –
10 | CCOC(=O)N1C(=O)[C@@](C)(c2cccc(C)c2)N1C(=O)OCC | 45% (inactive) | 0% (inactive) | 0% (inactive) | 0% (inactive) | 100% | 60 | 80 | 0% (inactive) | – | – | – | – | – | – | – | – | –
11 | CC[C@@]1(c2cccc(Cl)c2)C(=O)N(C(=O)OC(C)C)N1C(=O)OC(C)C | 65% (inactive) | 75% (inactive) | 45% (inactive) | 70% (inactive) | 100% (inactive) | 40 | 100 | 95% (inactive) | 50 | 15 | 20 | – | 30 | 25 | – | – | –
12 | CC[C@@]1(c2ccc(C)cc2)C(=O)N(C(=O)OC(C)C)N1C(=O)OC(C)C | 15% (inactive) | 0% (inactive) | 0% (inactive) | 50% (inactive) | 95% | 90 | 90 | 75% (inactive) | 30 | – | – | – | – | – | – | – | –
13 | Cc1cccc([C@]2(C)C(=O)N(C(=O)OC(C)C)N2C(=O)OC(C)C)c1 | 25% (inactive) | 0% (inactive) | 10% (inactive) | 0% (inactive) | 100% | 55 | 95 | 40% (inactive) | – | – | – | – | – | – | – | – | –
14 | CC[C@@]1(c2ccccc2)C(=O)N(C(=O)OC(C)C)N1C(=O)OC(C)C | 85% (inactive) | 0% (inactive) | 0% (inactive) | 65% (inactive) | 100% | 70 | 90 | 70% (inactive) | 10 | – | – | – | 10 | – | 10 | – | –
15 | CC[C@@]1(c2cccc(OC)c2)C(=O)N(C(=O)OC)N1C(=O)OC | 0% (inactive) | 0% (inactive) | 0% (inactive) | 0% (inactive) | 90% (inactive) | – | 65 | 0% (inactive) | – | – | – | – | – | – | – | – | –
16 | CC[C@]1(c2cccc(C)c2)C(=O)N(C(=O)OC)N1C(=O)OC | 0% (inactive) | 0% (inactive) | 0% (inactive) | 0% (inactive) | 85% (inactive) | – | 20 | 0% (inactive) | – | – | – | – | – | – | – | – | –
17 | CC[C@]1(c2cccc(C)c2)C(=O)N(C(=O)OC(C)C)N1C(=O)OC(C)C | 0% (inactive) | 0% (inactive) | 0% (inactive) | 10% (inactive) | 85% (inactive) | 30 | 30 | 0% (inactive) | – | – | – | – | – | – | – | – | –
18 | CC[C@@]1(c2ccc(Cl)c(Cl)c2)C(=O)N(C(=O)OC(C)C)N1C(=O)OC(C)C | 50% (inactive) | 0% (inactive) | 25% (inactive) | 50% (inactive) | 90% (inactive) | 25 | 90 | 80% (inactive) | – | – | – | – | – | – | – | – | –
19 | CCC[C@@]1(c2cccc(C)c2)C(=O)N(C(=O)OC)N1C(=O)OC | 0% (inactive) | 0% (inactive) | 0% (inactive) | 0% (inactive) | 10% (inactive) | – | – | 0% (inactive) | – | – | – | – | – | – | – | – | –
20 | CCOC(=O)N1C(=O)[C@@](CC)(c2ccccc2)N1C(=O)OCC | 55% (inactive) | 0% (inactive) | 0% (inactive) | 65% (inactive) | 100% | 75 | 100 | 90% (inactive) | 20 | – | 15 | – | – | – | – | – | –
21 | CC[C@@]1(c2ccc(OC)cc2)C(=O)N(C(=O)OC)N1C(=O)OC | 95% (inactive) | 0% (inactive) | 10% (inactive) | 10% (inactive) | 100% (inactive) | – | 70 | 40% (inactive) | – | – | – | – | 95 | – | – | – | –
22 | CC[C@@]1(c2ccc(Cl)cc2)C(=O)N(C(=O)OC)N1C(=O)OC | 45% (inactive) | 25% (inactive) | 45% (inactive) | 50% (inactive) | 100% | 60 | 100 | 50% (inactive) | – | – | – | – | – | – | – | – | –
23 | CC[C@@]1(c2ccc(C)cc2)C(=O)N(C(=O)OC)N1C(=O)OC | 20% (inactive) | 15% (inactive) | 10% (inactive) | 25% (inactive) | 100% | 55 | 95 | 50% (inactive) | 20 | – | – | – | – | – | – | – | –
24 | CC[C@@]1(c2ccccc2C)C(=O)N(C(=O)OC)N1C(=O)OC | 55% (inactive) | 25% (inactive) | 10% (inactive) | 40% (inactive) | 90% (inactive) | 20 | 15 | 70% (inactive) | – | – | – | – | – | – | – | 10 | 20
25 | CC[C@@]1(c2ccc(OC)cc2)C(=O)N(C(=O)OC(C)C)N1C(=O)OC(C)C | 70% (inactive) | 40% (inactive) | 10% (inactive) | 10% (inactive) | 100% (inactive) | – | 95 | 30% (inactive) | – | – | – | – | – | – | – | – | –
26 | CC[C@@]1(c2cccc(C)c2)C(=O)N(C(=O)OCc2ccccc2)N1C(=O)OCc1ccccc1 | 0% (inactive) | 75% (inactive) | 0% (inactive) | 35% (inactive) | 95% (inactive) | 20 | 65 | 90% (inactive) | – | – | 10 | – | – | – | – | – | –

Reference: PubChem BioAssay AID588807 (The Scripps Research Institute Molecular Screening Center, 2011)
